Experimental data reported in patent US8835458B2 (Hanmi Science Co., Ltd, priority 2010, dated 2014).
Structures can show the parent of a compound that is named as a salt.

Key:
[1] = Toxicity to normal cells (SRB); format: cell-based, human; conditions: human, Hs27 fibroblasts (normal cell line)
Protocol: (§1) MDA-MB-231 breast cancer cell lines (ATCC #HTB-26) and BxPC-3 pancreas cancer cell lines (ATCC #CRL 1687), which have been reported to express XIAP, were obtained from ATCC (American type culture collection; Rockville, Md.). MDA-MB-231 cell lines were incubated in L-15 medium supplemented with 10% FBS and 1% penicillin/streptomycin (Gibco BRL) at a T-75 cm^2 growth flask. In addition, BxPC-3 cell lines were incubated in RPMI medium supplemented with 10% FBS and 1% penicillin/streptomycin. For experiments of toxicity to normal cells, fibroblasts Hs27 (ATCC #CRL 1634) and Balb/c3t3 (ATCC #CCL 163) were used. The various cell lines were transferred into 96-well plates at a density of 3,000˜5,000 cells/100 μL, and cultured for 24 hours under conditions of 37° C., 5% CO2, 95% air, and 100% relative humidity (MDA-MB-231 cells were cultured under atmospheric conditions). The cells were treated with 10 μM˜0.1 nM of test compounds, and MDA-MB-231, BxPC-3, and normal cell lines were cultured for 120, 96, and 72 hours, respectively.
(§2) Cell viabilities of MDA-MB-231 cell lines were measured at an absorbance of 490 nm using CellTiter 96™ AQueous One Solution Cell proliferation Assay (MTS, Promega), and cell viabilities of BxPC-3 and normal cell lines were measured by fixing cells with 10% TCA (trichloroacetic acid), staining with SRB (sulforhodamine B), and measuring at 540 nm. From the values, GI50 values in which test compounds reduce the growth of cancer cells by 50% were calculated. The growth rates of cancer cells were calculated from following Equation 1 or 2. [(Ti−Tz)/(C−Tz)]×100 (for Ti>=Tz) [Equation 1] [(Ti−Tz)/Tz]×100 (for Ti<Tz) [Equation 2] In Equations 1 and 2, Tz refers to a density of untreated cells, which is an absorbance in 0% cell growth groups. C refers to a density of cells cultured by adding only medium, and Ti refers to a density of cells treated with test compounds.
(§3) GI50 value is the concentration of a test compound when the value of Equation 1 is 50, which indicates the concentration of test compound required to inhibit the cancer cells by 50%. On each measurement, test compounds were compared with a control.
(§4) The activity value of each compound (GI50 value) was shown in Table 5, and an IAP antagonist was used as a control.
(§5) In the activity measurement on MDA-MB-231 breast cancer cell lines, the values were represented as “***” for 100 nM or less, “**” for over 100 nM to below 1,000 nM, and “*” for 1,000 nM or more. In the measurement on normal cell lines, Balb/C and Hs27, the values were represented as “+++” for 10,000 nM or more, “++” for over 5,000 nM to below 10,000 nM, and “+” for 5,000 nM or less.

[2] = system: MDA-MB-231 breast cancer cell lines; assay: Evaluation of inhibition on cell growth (MTS); format: cell-based; conditions: Homo sapiens, MDA-MB-231, 120 hours
Protocol: as §1, §2, §3, §4, §5

| GI50 [2] [nM] | Compound | GI50 at 72 h [1] [nM] |
| --- | --- | --- |
| ≤ 100 | CN[C@@H](C)C(=O)N[C@H](C(=O)N1CCC[C@H]1C(=O)Nc1cc2c(Nc3ccc(N4CCCC4)c(Cl)c3)ncnc2cc1OC)C(C)(C)C [Example 113, (S)—N-(4-((3-chloro-4-(pyrrolidin-1-yl)phenyl)amino)-7-methoxyquinazolin-6-yl)-1-((S)-3,3-dimethyl-2-((S)-2-(methylamino)propanamido)butanoyl)pyrrolidine-2-carboxamide] | > 10000 |
| ≤ 100 | CN[C@@H](C)C(=O)N[C@H](C(=O)N1CCC[C@H]1C(=O)Nc1cc2c(Nc3ccc(N4CCN(C)CC4)c(F)c3)ncnc2cc1OC)C(C)(C)C [Example 112, (S)-1-((S)-3,3-dimethyl-2-((S)-2-(methylamino)propanamido)butanoyl)-N-(4-((3-fluoro-4-(4-methylpiperazin-1-yl)phenyl)amino)-7-methoxyquinazolin-6-yl)pyrrolidine-2-carboxamide] | > 10000 |
| ≤ 100 | CCCN1CCN(c2ccc(Nc3ncnc4cc(OC)c(NC(=O)[C@@H]5CCCN5C(=O)[C@@H](NC(=O)[C@H](C)NC)C(C)(C)C)cc34)cc2Cl)CC1 [Example 98, (S)—N-(4-((3-chloro-4-(4-propyl-1-yl)phenyl)amino)-7-methoxyquinazolin-6-yl)-1-((S)-3,3-dimethyl-2-((S)-2-(methylamino)propanamido)butanoyl)pyrrolidine-2-carboxamide hydrochloride] | > 10000 |
| ≤ 100 | CCN(CC)c1ccc(Nc2ncnc3cc(OC)c(NC(=O)[C@@H]4CCCN4C(=O)[C@@H](NC(=O)[C@H](C)NC)C(C)(C)C)cc23)cc1Cl [Example 99, (S)—N-(4-((3-chloro-4-(diethylamino)phenyl)amino)-7-methoxyquinazolin-6-yl)-1-((S)-3,3-dimethyl-2-((S)-2-(methylamino)propanamido)butanoyl)pyrrolidine-2-carboxamide hydrochloride] | > 10000 |
| ≤ 100 | CN[C@@H](C)C(=O)N[C@H](C(=O)N1CCC[C@H]1C(=O)Nc1cc2c(Nc3ccc(Br)cc3Cl)ncnc2cc1OC)C(C)(C)C [Example 80, (S)—N-(4-((4-bromo-2-chlorophenyl)amino)-7-methoxyquinazolin-6-yl)-1-((S)-3,3-dimethyl-2-((S)-2-(methylamino)propanamido)butanoyl)pyrrolidine-2-carboxamide hydrochloride] | > 10000 |
| ≤ 100 | CN[C@@H](C)C(=O)N[C@H](C(=O)N1CCC[C@H]1C(=O)Nc1cc2c(Nc3ccc(N4CCCCC4)c(Cl)c3)ncnc2cc1OC)C(C)(C)C [Example 96, (S)—N-(4-((3-chloro-4-(piperidin-1-yl)phenyl)amino)-7-methoxyquinazolin-6-yl)-1-((S)-3,3-dimethyl-2-((S)-2-(methylamino)propanamido)butanoyl)pyrrolidine-2-carboxamide hydrochloride] | > 10000 |
| ≤ 100 | CN[C@@H](C)C(=O)N[C@H](C(=O)N1CCC[C@H]1C(=O)Nc1cc2c(Nc3ccc(N4CCN(CC5CC5)CC4)c(F)c3)ncnc2cc1OC)C(C)(C)C [Example 100, hydrochloride] | > 10000 |
| ≤ 100 | CN[C@@H](C)C(=O)N[C@H](C(=O)N1CCC[C@H]1C(=O)Nc1cc2c(Nc3ccc(S(=O)(=O)N4CCN(C)CC4)cc3)ncnc2cc1OC)C(C)(C)C [Example 108, (S)-1-((S)-3,3-dimethyl-2-((S)-2-(methylamino)propanamido)butanoyl)-N-(7-methoxy-4-((4-((4-methylpiperazin-1-yl)sulfonyl)phenyl)amino)quinazolin-6-yl)pyrrolidine-2-carboxamide hydrochloride] | > 10000 |
| ≤ 100 | CN[C@@H](C)C(=O)N[C@H](C(=O)N1CCC[C@H]1C(=O)Nc1cc2c(Nc3ccc(N4CCN(C(C)C)CC4)c(Cl)c3)ncnc2cc1OC)C(C)(C)C [Example 97, (S)—N-(4-((3-chloro-4-(4-isopropylpiperazin-1-yl)phenyl)amino)-7-methoxyquinazolin-6-yl)-1-((S)-3,3-dimethyl-2-((S)-2-(methylamino)propanamido)butanoyl)pyrrolidine-2-carboxamide hydrochloride] | > 10000 |
| ≤ 100 | CN[C@@H](C)C(=O)N[C@H](C(=O)N1CCC[C@H]1C(=O)Nc1cc2c(Nc3ccc(N4CCOCC4)c(Cl)c3)ncnc2cc1OC)C(C)(C)C [Example 95, (S)—N-(4-((3-chloro-4-morpholinophenyl)amino)-7-methoxyquinazolin-6-yl)-1-((S)-3,3-dimethyl-2-((S)-2-(methylamino)propanamido)butanoyl)pyrrolidine-2-carboxamide] | > 10000 |

Second part, the molecule before the results:

| Compound | GI50 [2] [nM] | GI50 at 72 h [1] [nM] |
| --- | --- | --- |
| CN[C@@H](C)C(=O)N[C@H](C(=O)N1CCC[C@H]1C(=O)Nc1cc2c(Nc3cc(Cl)c(OCc4ccccn4)c(Cl)c3)ncnc2cc1OC)C(C)(C)C [Example 101, (S)—N-(4-((3,5-dichloro-4-(pyridin-2-ylmethoxy)phenyl)amino)-7-methoxyquinazolin-6-yl)-1-((S)-3,3-dimethyl-2-((S)-2-(methylamino)propanamido)butanoyl)pyrrolidine-2-carboxamide hydrochloride] | ≤ 100 | > 10000 |
| CN[C@@H](C)C(=O)N[C@H](C(=O)N1CCC[C@H]1C(=O)Nc1cc2c(Nc3ccc(N4CCC(N5CCN(C)CC5)CC4)cc3)ncnc2cc1OC)C(C)(C)C [Example 105, (S)-1-((S)-3,3-dimethyl-2-((S)-2-(methylamino)propanamido)butanoyl)-N-(7-methoxy-4-((4-(4-(4-methylpiperazin-1-yl)piperidin-1-yl)phenyl)amino)quinazolin-6-yl)pyrrolidine-2-carboxamide hydrochloride] | ≤ 100 | > 10000 |
| CN[C@@H](C)C(=O)N[C@H](C(=O)N1CCC[C@H]1C(=O)Nc1cc2c(NCCc3ccccc3)ncnc2cc1OC)C(C)(C)C [Example 83, hydrochloride] | 100 to 1000 | > 10000 |
| CN[C@@H](C)C(=O)N[C@H](C(=O)N1CCC[C@H]1C(=O)Nc1cc2c(Nc3ccc(F)cc3Br)ncnc2cc1OC)C(C)(C)C [Example 82, (S)—N-(4-((2-bromo-4-fluorophenyl)amino)-7-methoxyquinazolin-6-yl)-1-((S)-3,3-dimethyl-2-((S)-2-(methylamino)propanamido)butanoyl)pyrrolidine-2-carboxamide hydrochloride] | ≤ 100 | > 10000 |
| CN[C@@H](C)C(=O)N[C@H](C(=O)N1CCC[C@H]1C(=O)Nc1cc2c(Nc3ccc(N4CCN(C5CCN(C)CC5)CC4)cc3)ncnc2cc1OC)C(C)(C)C [Example 110, hydrochloride] | ≤ 100 | > 10000 |
| CN[C@@H](C)C(=O)N[C@H](C(=O)N1CCC[C@H]1C(=O)Nc1cc2c(Nc3ccc(Br)c(Cl)c3F)ncnc2cc1OC)C(C)(C)C [Example 87, (S)—N-(4-((4-bromo-3-chloro-2-fluorophenyl)amino)-7-methoxyquinazolin-6-yl)-1-((S)-3,3-dimethyl-2-((S)-2-(methylamino)propanamido)butanoyl)pyrrolidine-2-carboxamide hydrochloride] | ≤ 100 | > 10000 |
| CN[C@@H](C)C(=O)N[C@H](C(=O)N1CCC[C@H]1C(=O)Nc1cc2c(Nc3cccc(Cl)c3Cl)ncnc2cc1OC)C(C)(C)C [Example 81, (S)—N-(4-((2,3-dichlorophenyl)amino)-7-methoxyquinazolin-6-yl)-1-((S)-3,3-dimethyl-2-((S)-2-(methylamino)propanamido)butanoyl)pyrrolidine-2-carboxamide hydrochloride] | ≤ 100 | > 10000 |
| C#CCOc1ccc(Nc2ncnc3cc(OC)c(NC(=O)[C@@H]4CCCN4C(=O)[C@@H](NC(=O)[C@H](C)NC)C(C)(C)C)cc23)cc1 [Example 91, (S)-1-((S)-3,3-dimethyl-2-((S)-2-(methylamino)propanamide)butanoyl)-N-(7-methoxy-4-((4-(2-propyn-1-yloxy)phenyl)amino)quinazolin-6-yl)pyrrolidine-2-carboxamide hydrochloride] | ≤ 100 | > 10000 |
